Test results: the NIST ThermoML archive (doi:10.1016/j.tca.2010.01.019)
Numbers after ± are expanded uncertainties.

Conditions: Crystal, Calculated from knudsen effusion weight loss

In the case of CC(C)(C)c1ccc2c(c1)-c1nc-2nc2[n-]c(nc3nc(nc4[n-]c(n1)c1ccc(C(C)(C)C)cc41)-c1ccc(C(C)(C)C)cc1-3)c1ccc(C(C)(C)C)cc21.[Cu+2] [copper tetra-4-tert-butylphthalocyanine], the “vapor or sublimation pressure” value (587 K) is reported as 4.737e-06 ± 3.3e-06 kPa, the “vapor or sublimation pressure” value (604 K) is reported as 1.852e-05 ± 6.8e-06 kPa and the “vapor or sublimation pressure” value (620 K) is reported as 5.892e-05 ± 1.7e-05 kPa. The “vapor or sublimation pressure” value (640 K) was 0.0001549 ± 4.1e-05 kPa, the “vapor or sublimation pressure” value (656 K) was 0.0004 ± 8.6e-05 kPa and the “vapor or sublimation pressure” value (679 K) was 0.0008741 ± 0.00019 kPa. For the same compound, the “vapor or sublimation pressure” value (696 K) was 0.002084 ± 0.00039 kPa.
